Measurements taken from patent publication US20090181953A1, “COMPOUND FORMS AND USES THEREOF” (WYETH, priority 2008, published 2009).

Experiments:
[1] = molecular target: T1, α7 nicotinic acetylcholine receptor (Rattus norvegicus, UniProt Q05941); experiment: functional FLIPR assay, α7 nAChR stably expressed in GH4C1 cells; assay type: cell-based; details: GH4C1 cells stably transfected with rat α7 nAChR; agonist concentration range 0.001 to 30 microM
T1 construct: expressed in transfected cells
T1 sequence (Q05941 23-502): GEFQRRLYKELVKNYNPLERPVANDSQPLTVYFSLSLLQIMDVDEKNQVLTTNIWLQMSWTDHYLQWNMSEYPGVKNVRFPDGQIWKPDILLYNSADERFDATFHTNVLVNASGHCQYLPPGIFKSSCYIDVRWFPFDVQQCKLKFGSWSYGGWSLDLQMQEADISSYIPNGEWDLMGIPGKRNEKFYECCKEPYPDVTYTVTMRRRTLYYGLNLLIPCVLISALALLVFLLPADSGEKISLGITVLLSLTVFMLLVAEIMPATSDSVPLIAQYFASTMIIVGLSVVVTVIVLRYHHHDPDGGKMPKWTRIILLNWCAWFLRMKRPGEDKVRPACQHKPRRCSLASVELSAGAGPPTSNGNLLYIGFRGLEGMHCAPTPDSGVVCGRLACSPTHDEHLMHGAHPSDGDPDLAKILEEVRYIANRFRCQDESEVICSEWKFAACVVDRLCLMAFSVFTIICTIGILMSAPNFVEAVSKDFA
Source text: Rat GH4C1 cells were then transfected with the rat receptor, cloned and analyzed for functional alpha7 nicotinic receptor expression employing a FLIPR assay to measure changes in intracellular calcium concentrations.
The FLIPR system allows the measurements of real time Ca^2+-concentration changes in living cells using a Ca^2+ sensitive fluorescence dye (such as Fluo4). This instrument enables the screening for agonists and antagonists for alpha 7 nAChR channels stably expressed in GH4C1 cells.
GH4C1 cells stably transfected with rat-α7-nAChR (see above) were used. These cells are poorly adherent and therefore pretreatment of flasks and plates with poly-D-lysine was carried out. Cells are grown in 150 cm^2 T-flasks, filled with 30 ml of medium at 37° C. and 5% CO2.
EC50 and IC50 values were calculated using the IDBS XLfit4.1 software package employing a sigmoidal concentration-response (variable slope) equation:

[2] = solubility of hydrochloride crystal forms; assay type: physicochemical
[3] = hygroscopicity, Dynamic Vapor Sorption (DVS); assay type: physicochemical; details: for water absorbed eventually (up to): 90% RH; for RH at which moisture pick-up starts: relative humidity; for Hygroscopicity: hydrochloric acid salt
Method: Salt forms of a compound of formula 1 were investigated with X-ray powder diffraction, DSC, TGA and microscopy. FIG. 1 illustrates X-ray patterns observed for various salt forms. FIGS. 2 and 3 present results of thermal studies performed on such salt forms. FIGS. 4 and 5 present DVS data of sulfuric and phosphoric salts. […] FIGS. 6-12 show characterization data for hydrochloride salt forms.
Dynamic Vapor Sorption (DVS) was done at 25-26° C.

C[N+]1(C)CCN(c2ccccc2)CC1 [DMPP]
EC50 [1]: 980 ± 470 nM

COc1ccc(-c2cc(NC(=O)CCCCN3CCCN(C(C)=O)CC3)n[nH]2)cc1.Cl [Form I, 5-(4-acetyl-1,4-diazepan-1-yl)-N-(5-(4-methoxyphenyl)-1H-pyrazol-3-yl)pentanamide hydrochloric salt Form I]
solubility in water (in words) [2]: considerably soluble | moisture gained at 70-100% RH ([3]; 70-100% RH, lost without significant hysteresis on decreasing RH): at least 2% | water absorbed eventually (up to) [3]: up to 2% | moisture gained when equilibrated at RH less than or equal to 70% ([3]; RH <= 70%): about 0.5% | RH at which moisture pick-up starts [3]: about 50%

COc1ccc(-c2cc(NC(=O)CCCCN3CCCN(C(C)=O)CC3)n[nH]2)cc1.Cl [Form II, 5-(4-acetyl-1,4-diazepan-1-yl)-N-(5-(4-methoxyphenyl)-1H-pyrazol-3-yl)pentanamide hydrochloric salt Form II]
solubility in water (in words) [2]: considerably soluble | water absorbed eventually (up to) [3]: up to 7% | water held at low RH ([3]; low RH (0%)): 2% | RH at which moisture pick-up starts [3]: about 20%

COc1ccc(-c2cc(NC(=O)CCCCN3CCCN(C(C)=O)CC3)n[nH]2)cc1.Cl [Form III]
solubility ([2]; MC/T, aqueous with cosolvent or surfactant or cyclodextrin): > 100 mg/mL | water held at 50% RH ([3]; listed as Crystal Form III): (10% water | Hygroscopicity (in words) ([3]; listed as Crystal Form III): Hygroscopic

COc1ccc(-c2cc(NC(=O)CCCCN3CCCN(C(C)=O)CC3)n[nH]2)cc1.Cl [Form V]
water held at 50% RH ([3]; listed as Crystal Form V): (7% at RH | Hygroscopicity (in words) ([3]; listed as Crystal Form V): Hygroscopic

COc1ccc(-c2cc(NC(=O)CCCCN3CCCN(C(C)=O)CC3)n[nH]2)cc1.Cl [Hydrochloric acid, 5-(4-acetyl-1,4-diazepan-1-yl)-N-(5-(4-methoxyphenyl)-1H-pyrazol-3-yl)pentanamide hydrogen chloride]
melting point: 132 to 133 °C | Hygroscopicity ([3]; crystalline solid with melting onset 125° C. (first of two such lines)): Yes | Hygroscopicity ([3]; crystalline solid with melting onset 165° C.): Somewhat | Hygroscopicity ([3]; crystalline solid with melting onset 185° C.): No | Hygroscopicity ([3]; solid with three peaks: about 100, about 180 and about 200° C.): Yes | hygroscopicity of the sample ([3]; hydrochloride salt of Example 2D, precipitated from DCM with HCl in Et2O): extreme hygroscopicity | Hygroscopicity (in words) ([3]; listed as hydrochloride): non-hygroscopic

Sulfuric acid
water held at 50% RH [3]: maintains 0.4% | water held at 50% RH ([3]; listed as sulfate salt form): about 0.4% | water held at 50% RH ([3]; listed as sulfuric salt form): about 0.4% | gain below 70% RH ([3]; below 70% RH): 0.5% | Hygroscopicity (in words) ([3]; listed as sulfate salt): non-hygroscopic | Hygroscopicity (in words) ([3]; listed as sulfate salt form): low degree of hygroscopicity | Hygroscopicity (in words) ([3]; listed as sulfuric salt form): low degree of hygroscopicity
